Experiments:
HPANC-1 = conditions: non-insulin expressing human epithelial cell line HPANC-1, Misiti et al. 2005; cited from earlier work
P7 dispersed islets = test: Glucose-stimulated insulin secretion by static incubation, insulin ELISA; type: cell-based, rat; conditions: 10^−11 M T3 for four days, FIG. 6B
Description: RHPA allows the evaluation of secretion from single beta cells (see, e.g., Bosco et al., Am. J. Physiol., 268:C611-C618, 1995; Aguayo-Mazzucato et al., PLoS ONE, 1:e35, 2006). Briefly, insulin secreted during incubation with glucose binds to anti-insulin antibody and complement and lyses RBCs forming hemolytic immunoplaques around secreting cells. Accordingly, the area of the hemolytic plaque is proportional to the amount of insulin secreted by that individual cell. Glucose-stimulated insulin secretion (GSIS) is reflected by the secretion index: the product of the percentage of secreting cells and the mean area of immunoplaques. RHPA is a very sensitive assay in which the proportion of cells secreting and the robustness of their secretion can be measured. […] Insulin secretion was measured in static conditions by sequential incubation in 2.6 mM and 16.8 mM glucose in Krebs-Ringer bicarbonate buffer (KRB, 16 mM HEPES and 0.1% BSA, pH 7.4) as previously described (Schuppin et al., In Vitro Cell Dev Biol Anim 29A:339-344 (1993); Salomon et al., Exp Cell Res 162:507-520 (1986)). […]
Similar results were found in static incubation experiments were performed with P7 dispersed islets cultured in the presence (or absence) of 10^−11 M T3 for four days. mRNA levels for MafA and Ins2 were evaluated using real-time PCR. […]

beta cells = conditions: Verga et al. 2006; cited from earlier work
single beta cells = test: Reverse hemolytic plaque assay (RHPA) of insulin secretion from single beta cells; type: cell-based, rat
Description: RHPA allows the evaluation of secretion from single beta cells (see, e.g., Bosco et al., Am. J. Physiol., 268:C611-C618, 1995; Aguayo-Mazzucato et al., PLoS ONE, 1:e35, 2006). Briefly, insulin secreted during incubation with glucose binds to anti-insulin antibody and complement and lyses RBCs forming hemolytic immunoplaques around secreting cells. Accordingly, the area of the hemolytic plaque is proportional to the amount of insulin secreted by that individual cell. Glucose-stimulated insulin secretion (GSIS) is reflected by the secretion index: the product of the percentage of secreting cells and the mean area of immunoplaques. RHPA is a very sensitive assay in which the proportion of cells secreting and the robustness of their secretion can be measured. However it is laborious, therefore classic static insulin secretion studies were also performed with an insulin ELISA for measurement. Insulin secretion was measured in static conditions by sequential incubation in 2.6 mM and 16.8 mM glucose in Krebs-Ringer bicarbonate buffer (KRB, 16 mM HEPES and 0.1% BSA, pH 7.4) as previously described (Schuppin et al., In Vitro Cell Dev Biol Anim 29A:339-344 (1993); Salomon et al., Exp Cell Res 162:507-520 (1986)). Supernatants and cells were frozen until assayed for Insulin content.
(§1) Similar results were found in static incubation experiments were performed with P7 dispersed islets cultured in the presence (or absence) of 10^−11 M T3 for four days. mRNA levels for MafA and Ins2 were evaluated using real-time PCR. […] To further evaluate insulin secretion in these cells, P8 islets were dispersed and then cultured for 4 days with and without 10^−11 M T3, and a reverse hemolytic plaque assay (RHPA) was used to evaluate insulin secretion from single beta cells. […] FIGS. 8A-8B show beta cell glucose responsiveness in 2.8 or 16.8 mM glucose in control cells (8A) or cells treated with T3 (8B) in one of the three RHPA experiments.

pancreatic acinar cells = conditions: Ledda-Columbano et al. 2005; cited from earlier work
[1] = in vivo administration, rats, Hartoft-Nielson et al. 2009; cited from earlier work
neonatal islets [2] = test: Quantitative PCR of MafA, insulin and other gene transcription in dispersed neonatal islets cultured with glucose and T3; type: cell-based, rat; conditions: for insulin mRNA / MafA mRNA: 4 days
Description: To analyze the role of thyroid hormone during postnatal development of the endocrine pancreas, dispersed P7 islets were cultured with the two changing physiological stimuli identified so far glucose (11 mM and 20 mM) and tri-iodothyronine (T3 at 10^−11 M in charcoal-stripped fetal bovine serum (CS-FBS)), and after 4 days MafA and insulin transcription were assessed.
To further explore this idea, dispersed P8 islets were cultured with two changing physiological stimuli identified so far glucose (11 mM and 20 mM) and tri-iodothyronine (T3) at a concentration of 10^−11 M (T-11; gray bars) or with […] T3 (T-9) in charcoal-stripped fetal bovine serum (CS-FBS); after 4 days transcription levels of MafA and the MafA targets Ins2, GLP1R, PCSK1, PC, and LDH-A were assessed.
as §1

neonatal islets [3] = test: as above; type: cell-based, rat; conditions: P7 islets cultured with glucose and T3 at 0.015 nM in CS-FBS for four days, separately and together, FIG. 5A legend
[4] = P8 islet cells treated with T3 vs control untreated cells, quantitative PCR, FIG. 9
[5] = P8 islets cultured for 4 days with 0.015 nM T3 (T-9)
[6] = dispersed P8 islets, glucose (11 mM and 20 mM) and T3, CS-FBS, FIG. 5C

N[C@@H](Cc1cc(I)c(Oc2ccc(O)c(I)c2)c(I)c1)C(=O)O [T3, L-3,5,3′-triiodothyronine]
differentiation to or towards a glucose responsive insulin secreting cell line (HPANC-1): promote differentiation
Glucose-stimulated insulin secretion (P7 dispersed islets): significantly increased
apoptosis in beta cells (beta cells): reduces apoptosis
cell proliferation in beta cells (beta cells): promotes cell proliferation
insulin secretion in response to 16.8 mM glucose (single beta cells; P7 cells cultured for 4 days with thyroid hormone, one experiment): an increase in insulin secretion
insulin secretion in the presence 16.8 mM glucose (single beta cells; P7 cells treated with T3 compared to untreated control cells, FIGS. 7A and 7B legend): increases insulin secretion
insulin secretion index (single beta cells; dispersed P8 islets cultured for 4 days with 10^−11 M T3, FIG. 7A): marked increase
percentage of insulin secreting cells (single beta cells; dispersed P8 islets cultured for 4 days with 10^−11 M T3, FIG. 7B): marked increase
proliferation in pancreatic acinar cells (pancreatic acinar cells): promotes increased proliferation
proliferation in pancreatic islet (e.g., beta cells) and ductal cells (pancreatic acinar cells): but not in pancreatic islet (e.g., beta cells) and ductal cells
beta cell mass [1]: increased
incidence of type I diabetes [1]: reduced
MafA mRNA levels increase (neonatal islets [2]; P7 dispersed islets, 10^−11 M T3 for four days, real-time PCR, FIG. 6A): about two-fold
transcription of MCT1 (neonatal islets [2]; [4]): significantly increases
transcription of MafA (neonatal islets [2]; [4]): significantly increases
transcription of TRb (neonatal islets [2]; [4]): significantly increases
MafA mRNA increase compared with control cultured islets (neonatal islets [2]; [5]): 2.5 fold
insulin mRNA increase compared with control cultured islets (neonatal islets [2]; [5]): 71%
insulin mRNA (neonatal islets [2]; dispersed P7 islets, glucose (11 mM and 20 mM) and T3 at 10^−11 M in CS-FBS, stimuli separately and together): significantly increased
MafA mRNA (neonatal islets [2]; dispersed P7 islets, glucose (11 mM and 20 mM) and T3 at 10^−11 M in CS-FBS, stimuli separately and together, FIG. 5A): significantly increased
MafA mRNA (neonatal islets [2]; [6]): significantly increased
insulin mRNA (neonatal islets [2]; [6]): significantly increased
MafA transcription (neonatal islets [3]): increase
